Here are results for 13 compounds from paper PMC12481029, “Design, synthesis, antiproliferative assessments, and computational studies of new quinolin-2(1H)-ones as dual EGFR/HER-2 inhibitors” (Frontiers in Chemistry, 2025).

The subject of data set [1] is lung (A-549) cancer cell line. The data set is described as follows: Antiproliferative assay, A-549. The class given is cell-based. To be noted: Homo sapiens, A549; read-out: Antiproliferative activity IC50 ± SEM, A-549. The source says:
(§1) The MTT assay ([Al-Wahaibi et al., 2022]; [Mahmoud et al., 2023]) was employed to assess the antiproliferative effects of compounds 3a-h and 5a-g on four human cancer cell lines: colon (HT-29) cancer, pancreatic (Panc-1) cancer, lung (A-549) cancer, and breast (MCF-7) cancer cell lines. Erlotinib was applied as a reference. Table 1 presents the median inhibitory concentration (IC50) and average IC50 (GI50) values for each compound evaluated on the four cancer cell lines.
(§2) Compounds 3a-h and 5a-g were tested for their antiproliferative activities on four human cancer cell lines: colon (HT-29), pancreatic (Panc-1), lung (A-549), and breast (MCF-7) using the MTT assay ([Al-Wahaibi et al., 2022]; [Mahmoud et al., 2023]). Erlotinib was applied as a reference.
(§3) To explore the antiproliferative potential of compounds propidium iodide fluorescence assay was performed using different cell lines such as Panc-1 (pancreas cancer cell line), MCF-7 (breast cancer cell line), HT-29 (colon cancer cell line) and A-549 (epithelial cancer cell line), respectively. To calculate the total nuclear DNA, a fluorescent dye (propidium iodide, PI) is used which can attach to the DNA, thus offering a quick and precise technique. PI cannot pass through the cell membrane and its signal intensity can be considered as directly proportional to quantity of cellular DNA. Cells whose cell membranes are damaged or have changed permeability are counted as dead ones. The assay was performed by seeding the cells of different cell lines at a density of 3000-7500 cells/well (in 200μl medium) in culture plates followed by incubation for 24h at 37 °C in humidified 5%CO2/95% air atmospheric conditions. The medium was removed; the compounds were added to the plates at 10 μM concentrations (in 0.1% DMSO) in triplicates, followed by incubation for 48h. DMSO (0.1%) was used as control. After incubation, medium was removed followed by the addition of PI (25 μl, 50μg/mL in water/medium) to each well of the plates. At -80 °C, the plates were allowed to freeze for 24 h, followed by thawing at 25 °C. A fluorometer (Polar-Star BMG Tech) was used to record the readings at excitation and emission wavelengths of 530 and 620 nm for each well. The percentage cytotoxicity of compounds was calculated using the following formula: […]

Data set [2] is described as follows: in vitro. To be noted: human.
Procedure: (§4) MTT assay was performed to investigate the effect of the synthesized compounds on mammary epithelial cells (MCF-10A). The cells were propagated in medium consisting of Ham's F-12 medium/ Dulbecco's modified Eagle's medium (DMEM) (1:1) supplemented with 10% foetal calf serum, 2 mM glutamine, insulin (10 μg/mL), hydrocortisone (500 ng/mL) and epidermal growth factor (20 ng/mL). Trypsin ethylenediamine tetra acetic acid (EDTA) was used to passage the cells after every 2-3 days. 96-well flat-bottomed cell culture plates were used to seed the cells at a density of 10^4 cells mL^-1. The medium was aspirated from all the wells of culture plates after 24 h followed by the addition of synthesized compounds (in 200 μL medium to yield a final concentration of 0.1% (v/v) dimethyl sulfoxide) into individual wells of the plates. Four wells were designated to a single compound. The plates were allowed to incubate at 37°C for 96 h. Afterwards, the medium was aspirated and 3-[4,5-dimethylthiazol-2-yl]-2,5-diphenyltetrazolium bromide (MTT) (0.4 mg/mL) in medium was added to each well and subsequently incubated for 3 h. The medium was aspirated and 150 μL dimethyl sulfoxide (DMSO) was added to each well. The plates were vortexed followed by the measurement of absorbance at 540 nm on a microplate reader.
For data set [3], the system named is colon (HT-29) cancer cell line. The data set is described as follows: Antiproliferative assay, HT-29. Type of data set: cell-based. To be noted: Homo sapiens, read-out: Antiproliferative activity IC50 ± SEM, HT-29.
In data set [4] the test system is four human cancer cell lines (A-549, MCF-7, Panc-1, HT-29). The data set is described as follows: Antiproliferative assay, average over four cancer cell lines. The class given is cell-based. To be noted: for GI50: Homo sapiens, average IC50 over the four cancer cell lines; for Potency reduction (fold) compared to 3d (GI50): ratio to 3d GI50 = 41 nM.
The test system of data set [5] is pancreatic (Panc-1) cancer cell line. The data set is described as follows: Antiproliferative assay, Panc-1. Type of data set: cell-based. To be noted: Homo sapiens, read-out: Antiproliferative activity IC50 ± SEM, Panc-1.
From the text: as §1, §2, §3

Data set [6] deals with breast (MCF-7) cancer cell line. In words: Antiproliferative assay, MCF-7. To be noted: Homo sapiens, MCF7; read-out: Antiproliferative activity IC50 ± SEM, MCF-7. Type of data set: cell-based.
From the text: as §1, §2, §3

The nature of data set [7]: Cell viability assay (MTT), normal mammary cells. To be noted: human, MCF-10A normal mammary epithelial cells.
Procedure: as §4
Data set [8] has as its target EGFR (Homo sapiens, UniProt P00533). The data set is described as follows: EGFR inhibitory assay (EGFR-TK test). To be noted: for IC50: EGFR inhibition IC50 ± SEM; for Fold less effective than erlotinib, EGFR inhibition: ratio to erlotinib IC50.
Procedure: 5ʹ upstream to the EGFR sequence comprised a sequence that encoded (His)6. Sf-9 cells were infected for 72h for protein expression. The pellets of Sf-9 cells were solubilized in a buffer containing sodium vanadate (100 μM), aprotinin (10 μg/mL), triton (1%), HEPES buffer(50mM), ammonium molybdate (10 μM), benzamidine HCl (16 μg/mL), NaCl (10 mM),leupeptin (10 μg/mL) and pepstatin (10 μg/mL) at 0°C for 20 min at pH 7.4, followed by centrifugation for 20 min. To eliminate the nonspecifically bound material, a Ni-NTA super flow packed column was used to pass through and wash the crude extract supernatant first with 10mM and then with 100 mM imidazole. Histidine-linked proteins were first eluted with 250 and then with 500 mM imidazole subsequent to dialysis against NaCl (50 mM), HEPES (20 mM), glycerol (10%) and 1 μg/mL each of aprotinin, leupeptin and pepstatin for 120 min. The purification was performed either at 4 °C or on ice. To record autophosphorylation level, EGFR kinase assay was carried out on the basis of DELFIA/Time-Resolved Fluorometry. […] Each compound (10 μL) was incubated with recombinant enzyme (10 μL, 5 ng for EGFR, 1:80 dilution in 100 mM HEPES) for 10 min at 25 °C, subsequent to the addition of 5X buffer (10 μL, containing 2 mM MnCl2, 100 μM Na3VO4, 20 mM HEPES and 1 mM DTT) and ATP-MgCl2 (20 μL, containing 0.1 mM ATP and 50 mM MgCl2) and incubation for 1h. The negative and positive controls were included in each plate by the incubation of enzyme either with or without ATP-MgCl2. The liquid was removed after incubation and the plates were washed thrice using a wash buffer. The Europium-tagged antiphosphotyrosine antibody (75 μL, 400 ng) was added to each well followed by incubation of 1h and then washing of the plates using buffer. […] The autophosphorylation percentage inhibition by compounds was calculated using the following equation:
The majority of signals detected by antiphosphotyrosine antibody were from EGFR because the enzyme preparation contained low impurities.
In data set [9] the target is HER-2 (Homo sapiens, UniProt P04626). The data set is described as follows: HER-2 inhibitory assay (ADP-Glo kinase assay). On the technique in general: ADP-Glo first removes unused ATP, then detects ADP through luciferase.
Procedure: The ADP-Glo™ Kinase Assay was used for kinase activity detection, related kinases information: HER-2 (ab60866, Abcam), with a concentration of 100 ng/mL. Target compounds were dissolved in DMSO to obtain drug solutions with different concentrations, and the compound concentrations in the final reaction system (100 μL) were 1 nM, 20 nM, 40 nM, 80 nM, and 100 nM, respectively. 10μL of the solution containing compounds was transferred to a 96-well plate, then added 40 μL of 1 × kinase buffer (50 mM HEPES, pH 7.5) to each well, and mixed the mixture in the 96-well plate on a shaker for 10 min. Next, added 25 μL of ADP-Glo™ reagent to the above wells, mixed and incubated for another 40 min. Distributed 10 μL kinase detection reagent to the reaction and incubated for 30 min. Finally, the full-wavelength microplate reader was used to record the OD value.

The term IC50 denotes the concentration that inhibits the measured activity by half. One may read the viability as the share of living cells, or the viability signal relative to a control. By GI50 is commonly meant the concentration giving 50% growth inhibition. Low values mean more potent growth inhibition, high ones less potent growth inhibition.

Values joined by “and” are separate entries in the source; they are usually repeats but may differ in a detail not shown here. Identical values can stand only once. Some results are limits rather than exact numbers.

HER-2, sequence (P04626 676-1255 limits assumed): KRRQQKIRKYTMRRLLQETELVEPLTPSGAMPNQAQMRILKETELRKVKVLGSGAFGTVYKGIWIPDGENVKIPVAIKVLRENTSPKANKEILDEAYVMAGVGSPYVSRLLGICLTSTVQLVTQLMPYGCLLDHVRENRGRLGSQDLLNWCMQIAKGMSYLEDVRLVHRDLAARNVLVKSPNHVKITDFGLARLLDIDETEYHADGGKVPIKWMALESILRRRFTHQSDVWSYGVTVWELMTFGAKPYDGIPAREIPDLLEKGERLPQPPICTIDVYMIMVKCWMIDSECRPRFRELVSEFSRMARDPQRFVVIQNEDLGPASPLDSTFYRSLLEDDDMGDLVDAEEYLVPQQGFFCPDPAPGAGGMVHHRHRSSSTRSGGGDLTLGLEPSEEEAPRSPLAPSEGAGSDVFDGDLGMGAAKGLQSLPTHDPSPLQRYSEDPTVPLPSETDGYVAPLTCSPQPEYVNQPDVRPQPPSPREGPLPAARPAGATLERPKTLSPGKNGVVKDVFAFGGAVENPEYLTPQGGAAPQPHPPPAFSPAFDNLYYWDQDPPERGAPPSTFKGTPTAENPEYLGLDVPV
EGFR, sequence (P00533 669-1210): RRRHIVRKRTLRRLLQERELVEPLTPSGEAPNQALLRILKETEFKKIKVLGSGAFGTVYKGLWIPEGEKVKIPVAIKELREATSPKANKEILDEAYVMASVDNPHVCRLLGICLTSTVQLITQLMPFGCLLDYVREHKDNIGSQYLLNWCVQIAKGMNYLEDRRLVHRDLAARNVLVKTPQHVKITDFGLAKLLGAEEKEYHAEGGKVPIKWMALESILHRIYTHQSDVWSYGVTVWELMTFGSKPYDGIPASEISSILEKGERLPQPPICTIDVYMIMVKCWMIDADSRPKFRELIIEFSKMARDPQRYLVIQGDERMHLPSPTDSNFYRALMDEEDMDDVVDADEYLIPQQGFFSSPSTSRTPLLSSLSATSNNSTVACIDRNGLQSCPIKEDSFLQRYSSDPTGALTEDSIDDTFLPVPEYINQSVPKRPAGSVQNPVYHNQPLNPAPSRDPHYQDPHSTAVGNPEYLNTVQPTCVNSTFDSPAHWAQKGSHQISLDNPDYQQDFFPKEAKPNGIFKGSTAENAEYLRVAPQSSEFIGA

As for `Cc1cccc2c(O)c(/C=N/Nc3ccc([N+](=O)[O-])cc3[N+](=O)[O-])c(=O)[nH]c12` [Compound 5d, (E)-3-((2-(2,4-Dinitrophenyl)hydrazono)methyl)-4-hydroxy-8-methyl quinolin-2(1H)-one], the half-maximal inhibitory concentration (IC50) in [1] was 71 ± 7 nM; in data set [3], 74 ± 7 nM; in [5], 74 ± 7 nM; in [6], 67 ± 6 nM. Besides, in data set [2], the viability at 4 days, 50 µM is 92%. Further, the GI50 in data set [4] is 72 nM.

`Cc1ccc(S(=O)(=O)N/N=C/c2c(O)c3cc(C)ccc3[nH]c2=O)cc1` [Compound 3c, (E)-N'-((4-hydroxy-6-methyl-2-oxo-1,2-dihydroquinolin-3-yl)methylene)-4-methylbenzenesulfonohydrazide] came in with a viability at 4 days, 50 µM in [7] of 86%. Besides, the IC50 was 50 ± 5 nM in data set [1]; 95 nM and 99 nM in data set [8]; 52 ± 4 nM in data set [3]; 53 ± 5 nM in [5]; 49 ± 3 nM in data set [9]; 48 ± 4 nM in data set [6]. Besides, the “Fold less effective than erlotinib, EGFR inhibition” value in data set [8] is on record as 1.2. In data set [4], this compound showed a 50% growth inhibitory concentration (GI50) of 51 nM. The “Potency reduction (fold) compared to 3d (GI50)” value (“Potency reduction (fold)” for short) in data set [4] is recorded as 1.3.

On to `COc1ccc2[nH]c(=O)c(/C=N/Nc3ccc([N+](=O)[O-])cc3[N+](=O)[O-])c(O)c2c1` [Compound 5c, (E)-3-((2-(2,4-Dinitrophenyl)hydrazono)methyl)-4-hydroxy-6-methoxy quinolin-2(1H)-one], for which the IC50 is 65 ± 6 nM in [1], 68 ± 6 nM in data set [3], 69 ± 6 nM in data set [5] and 62 ± 6 nM in data set [6]. This compound yielded a viability at 4 days, 50 µM in data set [2] of 89%. Moreover, in data set [4], growth was halved (GI50) at 66 nM.

Regarding `Cn1c(=O)c(/C=N/Nc2ccc([N+](=O)[O-])cc2[N+](=O)[O-])c(O)c2ccccc21` [Compound 5e, (E)-3-((2-(2,4-Dinitrophenyl)hydrazono)methyl)-4-hydroxy-1-methyl quinolin-2(1H)-one], the concentration for half-maximal inhibition (IC50) stood at 76 ± 7 nM in data set [1], 78 ± 7 nM in [3], 76 ± 7 nM in data set [5] and 74 ± 7 nM in data set [6]. Moreover, the viability at 4 days, 50 µM in data set [2] turned out to be 87%. In [4], this compound displayed a GI50 of 76 nM.

As to `Cc1ccc(S(=O)(=O)N/N=C/c2c(O)c3ccc(C)cc3[nH]c2=O)cc1` [Compound 3g, (E)-N'-((4-hydroxy-7-methyl-2-oxo-1,2-dihydroquinolin-3-yl)methylene)-4-methyl benzenesulfonohydrazide], the viability at 4 days, 50 µM in data set [7] turned out to be 87%. The IC50 in data set [1] is 94 ± 9 nM; in [3] it was 96 ± 9 nM; in [5], 94 ± 9 nM; in [6] it was 90 ± 9 nM. The 50% growth inhibitory concentration (GI50) in [4] was 94 nM. Further, the “Potency reduction (fold)” value in [4] is “at least 2.3”.

`Cc1ccc(S(=O)(=O)N/N=C/c2c(O)c3cccc(C)c3[nH]c2=O)cc1` [Compound 3h, (E)-N'-((4-hydroxy-8-methyl-2-oxo-1,2-dihydroquinolin-3-yl)methylene)-4-methyl benzenesulfonohydrazide]: the viability at 4 days, 50 µM in data set [7] was 90%. For the same compound, the IC50 in data set [1], in data set [3], in data set [5] and in data set [6] was greater than 100 nM each time. In addition, the GI50 in data set [4] is greater than 100 nM. Moreover, the “Potency reduction (fold)” value in data set [4] is “at least 2.3”.

As to `Cc1ccc(S(=O)(=O)N/N=C/c2c(O)c3ccccc3n(C)c2=O)cc1` [Compound 3a, (E)-N'-((4-hydroxy-1-methyl-2-oxo-1,2-dihydroquinolin-3-yl)methylene)-4-methylbenzenesulfonohydrazide], the viability at 4 days, 50 µM in data set [7] was determined as 90%. Also, the half-inhibitory concentration (IC50) is 92 ± 9 nM in data set [1], 94 ± 9 nM in data set [3], 94 ± 9 nM in data set [5] and 89 ± 8 nM in data set [6]. In [4], this compound returned a GI50 of 92 nM. For the same compound, in [4], the “Potency reduction (fold)” value is reported as “at least 2.3”.

As to `CCn1c(=O)c(/C=N/NS(=O)(=O)c2ccc(C)cc2)c(O)c2ccccc21` [Compound 3e, (E)-N'-((1-Ethyl-4-hydroxy-2-oxo-1,2-dihydroquinolin-3-yl)methylene)-4-methyl benzenesulfonohydrazide], the viability at 4 days, 50 µM in [7] came to 89%. The 50% inhibitory concentration (IC50) in data set [1] amounted to 62 ± 6 nM; in data set [3], 64 ± 6 nM; in data set [5], 64 ± 6 nM; in data set [6], 61 ± 6 nM. Growth in data set [4] was halved (GI50) at 63 nM.

As for `Cc1ccc2c(O)c(/C=N/Nc3ccc([N+](=O)[O-])cc3[N+](=O)[O-])c(=O)[nH]c2c1` [Compound 5f, (E)-3-((2-(2,4-Dinitrophenyl)hydrazono)methyl)-4-hydroxy-7-methyl quinolin-2(1H)-one], the IC50 in data set [1] was found to be 85 ± 8 nM; in [3] it was 86 ± 8 nM; in [5], 86 ± 8 nM; in data set [6], 83 ± 8 nM. In addition, in [2], the viability at 4 days, 50 µM amounted to 90%. The same compound returned a 50% growth inhibitory concentration (GI50) in data set [4] of 85 nM.

`COc1ccc2[nH]c(=O)c(/C=N/NS(=O)(=O)c3ccc(C)cc3)c(O)c2c1` [Compound 3b, (E)-N'-((4-hydroxy-6-methoxy-2-oxo-1,2-dihydroquinolin-3-yl)methylene)-4-methyl benzenesulfonohydrazide]: the viability at 4 days, 50 µM in data set [7] stood at 92%. The concentration for half-maximal inhibition (IC50) amounted to 56 ± 5 nM in [1], 58 ± 5 nM in [3], 56 ± 5 nM in data set [5] and 52 ± 5 nM in [6]. The compound also had a GI50 in data set [4] of 56 nM. Also, the “Potency reduction (fold)” value in data set [4] came to 1.4.

As to `O=c1[nH]c2ccc(Cl)cc2c(O)c1/C=N/Nc1ccc([N+](=O)[O-])cc1[N+](=O)[O-]` [Compound 5g, (E)-6-Chloro-3-((2-(2,4-dinitrophenyl)hydrazono)methyl)-4-hydroxy quinolin-2(1H)-one], the half-inhibitory concentration (IC50) was determined as 81 ± 8 nM in data set [1], 82 ± 8 nM in data set [3], 82 ± 8 nM in data set [5] and 78 ± 7 nM in [6]. The same compound returned a viability at 4 days, 50 µM in [2] of 91%. The compound also came in with a GI50 in data set [4] of 81 nM.

Turning to `Cc1ccc(S(=O)(=O)N/N=C/c2c(O)c3cc(Cl)ccc3[nH]c2=O)cc1` [Compound 3f, (E)-N'-((6-chloro-4-hydroxy-2-oxo-1,2-dihydroquinolin-3-yl)methylene)-4-methyl benzenesulfonohydrazide], in data set [7], the viability at 4 days, 50 µM stood at 90%. The IC50 in data set [1] was 46 ± 4 nM; in [8], 99 nM and 95 nM; in [3] it was 48 ± 4 nM; in data set [5], 46 ± 4 nM; in [9], 44 ± 3 nM; in data set [6], 43 ± 4 nM. For the same compound, the “Fold less effective than erlotinib, EGFR inhibition” value in [8] turned out to be 1.2. This compound returned a GI50 in [4] of 46 nM.

As for `Cc1ccc2[nH]c(=O)c(/C=N/Nc3ccc([N+](=O)[O-])cc3[N+](=O)[O-])c(O)c2c1` [Compound 5b, (E)-3-((2-(2,4-Dinitrophenyl)hydrazono)methyl)-4-hydroxy-6-methyl quinolin-2(1H)-one], the viability at 4 days, 50 µM in [7] turned out to be 90%. Besides, the 50% inhibitory concentration (IC50) in [1] was 52 ± 5 nM; in data set [8], 106 ± 7 nM; in [3], 54 ± 5 nM; in data set [5] it was 54 ± 5 nM; in data set [9] it was 56 ± 4 nM; in [6], 50 ± 5 nM. Also, in [4], halving of growth (GI50) required 53 nM.
